According to patent publication US20260083769A1, “2-Aminopropane-1,3-Diol-Capped Cationic Peptoids for Nucleic Acid Delivery” (NUTCRACKER THERAPEUTICS, INC., priority 2022, published 2026):
Where two headings read alike, the source gives them in different places. Where a SMILES comes first, the peptide text is derived from it. [ ]: non-standard residue; d: D form. N(2-ethylhexyl)Gly = CCCCC(CC)CNCC(=O)O; Gly(N-dodecyl) = CCCCCCCCCCCCNCC(=O)O; N(CH(CH2OH)2)Gly = O=C(O)CNC(CO)CO; N(octyl)Gly = CCCCCCCCNCC(=O)O; NDecylGly = CCCCCCCCCCNCC(=O)O

Key:
[1] = Particle size and polydispersity (PDI) of delivery vehicles by dynamic light scattering; type: physicochemical; conditions: Table 5; delivery vehicle comprising the peptoid, Formulation D22, fLuc mRNA
Description: The resulting delivery vehicle complexes were evaluated by dynamic light scattering (DLS) to determine the volume average particle size/diameter (nm) and the size polydispersity index (PDI) within the delivery vehicle complex.
Particle size. Particle sizes and size distributions were measured using a Wyatt DynaPro® Plate Reader III. In general, formulated samples were diluted to 2 ng/μL in 100 µL PBS. Data is reported as the hydrodynamic diameter (in nm) of the cumulant fit of the correlation function, and the polydispersity of that measurement.
(§1) In one particular instance, the size and polydispersity (PDI) of delivery vehicles was measured by dynamic light scattering in PBS using a DynaPro® plate reader III. The zeta potential of delivery vehicles was determined using Nano-ZS™ particle analyzer. Zeta sample was diluted to 30 uM total lipid in a weakly buffered solution of 10 mM HEPES, 10 mM MES, 10 mM ammonium acetate pH 7. Measurements were collected in duplicate for over 30 run with the voltage manually set to […]

[2] = Zeta potential of delivery vehicles; type: physicochemical; conditions: Table 5; delivery vehicle, pH 7 buffer; in mV (unit assumed)
Description: as §1

[3] = Apparent particle pKa, TNS fluorescence assay; type: physicochemical; conditions: Table 5; apparent particle pKa of delivery vehicle
Description: The apparent particle pKa was assessed by a TNS fluorescence assay. Briefly, particles were diluted to 130 uM total lipid in TNS buffer ranging in pH 3-11 for 10 minutes with […] of TNS probe. The fluorescence was measured at room temperature in a plate reader ex 320/em 445. Fluorescence intensity was normalized to the minimal and maximal values and the pKa was determined by a 3 parameter fit to determine the half maximum of the curve.

[4] = RBC hemolysis as metric for fusogenicity; type: cell-based; conditions: sheep red blood cells (RBCs), 5% v/v, Table 5, delivery vehicle, 37° C. 45 min
Description: RBC hemolysis was used as a metric for fusogenicity of LNPs at low pH. […] Particles were diluted to […] total lipid in well with 5% RBC solution and incubated at 37° C. for 45 min. Supernatant was collected and absorbance read on a microplate reader at 425 nm. Fusion was normalized to a fully lysed sample with 2% Triton™ and a buffer-only control. % hemolysis=100*[(ABS T-background)−(ABS sample-background)/(ABS T-background)].

[5] = Percent encapsulated mRNA, RiboGreen assay; type: physicochemical; conditions: Table 5; delivery vehicle comprising the peptoid, Formulation D22, fLuc mRNA
Description: Percent encapsulation. The percentage of mRNA encapsulated within the delivery vehicle complexes containing Fluc mRNA was determined using a modified RiboGreen® assay. In general, formulated mRNA samples were diluted to 500 ng/ml in Tris-EDTA buffer with or without Triton-X™. RiboGreen® (Invitrogen) was added at a 200-fold dilution, and the plate was incubated for 5 minutes. Fluorescence was measured at Ex. […]/Em. 520 nm and encapsulated mRNA was calculated by taking the ratio of fluorescence for non-lysed particles versus lysed particles.
The mRNA concentration and the percentage of encapsulated mRNA were determined using a fluorescence-based Quant-iT™ RiboGreen® RNA Reagent Kit using a literature procedure. To determine the mRNA concentration, delivery vehicles were incubated with 2% Triton™ X-100 for 10 min to release entrapped mRNA, followed by addition of RiboGreen® RNA reagent. The fluorescence intensity of mRNA-RiboGreen® reagent complex (excitation at 485 nm and emission at 530 nm) was detected using a microplate reader. The ratio of fluorescence without and with Triton™ X-100 were used to calculate the percentage of encapsulated mRNA.

BALB/c mice = assay: In vivo fLuc mRNA expression after IV dose, whole body and organ bioluminescence; conditions: BALB/c mice, IV, luminescence 6 hours after dose, lipid block screen
Text: In one particular instance, peptoids disclosed herein were formulated into delivery vehicles by first dissolving in ethanol along with DSPC, cholesterol, and DMG-PEG2000 at weight ratio of 20:1.8:7.2:1.8 (Formulation D22 in Table 3, above), then mixed with firefly luciferase (fLuc) mRNA dissolved in an aqueous buffer at a volume ratio of 1:3 via microfluidic nanoprecipitation on a turbulent mixing device, resulting in small, low dispersity particles. Physical particle properties were characterized. Delivery vehicles with initial sizes larger than 120 nm were not brought forward into in vivo screening as liver fenestrae primarily accommodate LNPs sized under 100 nm. In vivo expression of delivery vehicles comprising peptoids with varied headgroups was evaluated using fLuc expression in BALB/c mice 6 hours after IV dose (FIG. 1). […] The aminoethyl and aminopropyl headgroups both show preferential expression in lung (FIG. 2), potentially due to the high basicity of the pendant primary amine, as groups with higher pKas are known to accumulate in that organ. […] While spleen and lung selectivity merit further optimization for future therapeutic applications, liver-selective targets were used for further studies herein to prepare for systemic delivery of antibody targets and maximize their serum expression with anti-RSV cargo.
Intravenous administration. The delivery vehicle complexes disclosed herein are effective for in vivo administration of Fluc mRNA to BALB/c mice through multiple routes of administration. In general, delivery system complexes were administered at a dose of 0.5 mg/kg via a tail-vein injection, and the resulting bioluminescence was quantified after 6 hours. Organ-specific bioluminescence was quantified by sacrificing the treated animal, dissecting out the organs of interest, and separately quantifying the resulting bioluminescence
In one particular instance, to investigate how the peptoid lipid block impacts in vivo expression, delivery vehicles with diameter larger than 120 nm were excluded and remaining candidates were administered IV to BALB/c mice. Luminescence was measured after 6 hours and the resulting expression in liver, lung and spleen were quantified. Even without changing the cationic headgroup, luciferase expression spanned 4 orders of magnitude as a result of altering the lipid block in this series. […] In vivo expression of all candidates was then fit to a multi-parameter model containing the 4 input parameters to understand the individual contributions of each factor to overall performance. […] Contour plots of the impact of these factors on expression (all using Ehx as the branched/unsaturated monomer) are shown in FIG. 4.
For imaging studies, female BALB/c mice (6-8 weeks old) were obtained and acclimatized for a minimum of 3 days prior to experiments. The animals were maintained on a 12 hour light cycle in a temperature and humidity controlled room. A daily health check was performed as well as food and water check. For dosing, mice were injected with 2.5 μg fLuc mRNA-containing delivery vehicles intravenously in 100 μL total injection volume. At 6 hours post-injection, mice were anesthetized with isoflurane, and injected intraperitoneally with 30 mg/mL D-luciferin at a dose of 10 μL per gram bodyweight intraperitoneally. Imaging was done 10 minutes post D-luciferin injection using an IVIS® Spectrum Imaging System. Immediately after in vivo imaging, mice were terminally bled by cardiac puncture and euthanized. The organs of interest were harvested, placed in black 24-well plates, and imaged. Living Image® software was used to quantify the total photon flux in regions of interest. For secreted protein studies, mice were injected with aRSV mRNA-containing delivery vehicles intravenously in 100 μL total injection volume. Mice were euthanized after 24 hours, with serum collection at 6 and 24 hours post-injection. […]

[6] = pH 5, read-out: Hemolysis at pH 5
[7] = pH 7, read-out: Hemolysis at pH 7

Row | PDI [1] | Particle Size (nm) [1] [nm] | Zeta Potential [2] | pKa (TNS) [3] | % Encapsulation [5] [%] | SMILES | hemolysis at 45 min, 150 mM total lipid [4, 6] [%] | hemolysis at 45 min, 150 mM total lipid [4, 7] [%] | fLuc (luciferase) expression in vivo (BALB/c mice)
1 | 0.089 | 86.6 | −5.98 | 5.844 | 82.2 | CCCCCCCCCCN(CC(=O)N(CC(N)=O)CC(CC)CCCC)C(=O)CN(CCCCCCCC)C(=O)CN(CC(CC)CCCC)C(=O)CN(CCCCCCCCCC)C(=O)CN(CCCCCCCC)C(=O)CNC(CO)CO (stereo not drawn) [Compound 28] (H-[N(CH(CH2OH)2)Gly][N(octyl)Gly][NDecylGly][N(2-ethylhexyl)Gly][N(octyl)Gly][NDecylGly][N(2-ethylhexyl)Gly]-NH2) | 15.1 | 5.6 | –
2 | 0.094 | 92.7 | −7.04 | 6.044 | 81.9 | CCCCCCCCCCN(CC(=O)N(CCCCCCCCCC)CC(=O)N(CC(=O)N(CCCCCCCCCC)CC(=O)N(CCCCCCCCCC)CC(=O)N(CC(N)=O)CC(CC)CCCC)CC(CC)CCCC)C(=O)CNC(CO)CO (stereo not drawn) [Compound 29] (H-[N(CH(CH2OH)2)Gly][NDecylGly][NDecylGly][N(2-ethylhexyl)Gly][NDecylGly][NDecylGly][N(2-ethylhexyl)Gly]-NH2) | 4.8 | 1.3 | –
3 | 0.097 | 82.6 | −1.41 | 6.084 | 87.7 | CCCCCCCCCCCCN(CC(=O)N(CCCCCCCCCCCC)CC(=O)N(CC(=O)N(CCCCCCCCCCCC)CC(=O)N(CCCCCCCCCCCC)CC(=O)N(CC(N)=O)CC(CC)CCCC)CC(CC)CCCC)C(=O)CNC(CO)CO (stereo not drawn) [Compound 30] (H-[N(CH(CH2OH)2)Gly][Gly(N-dodecyl)][Gly(N-dodecyl)][N(2-ethylhexyl)Gly][Gly(N-dodecyl)][Gly(N-dodecyl)][N(2-ethylhexyl)Gly]-NH2) | 17.3 | 2.1 | –
4 | 1 | 165.8 | −2.12 | 5.935 | −1.8 | CCCCCCCCCCCCN(CC(=O)N(CCCCCCCCCCCC)CC(=O)N(CCCCCCCC)CC(=O)N(CCCCCCCCCCCC)CC(=O)N(CCCCCCCCCCCC)CC(=O)N(CCCCCCCC)CC(N)=O)C(=O)CNC(CO)CO [Compound 33] (H-[N(CH(CH2OH)2)Gly][Gly(N-dodecyl)][Gly(N-dodecyl)][N(octyl)Gly][Gly(N-dodecyl)][Gly(N-dodecyl)][N(octyl)Gly]-NH2) | 0.9 | 0.4 | –
5 | 0.082 | 90.7 | −5.88 | 5.937 | 76.1 | CCCCCCCCCCCCN(CC(=O)N(CC(N)=O)CC(CC)CCCC)C(=O)CN(CCCCCCCC)C(=O)CN(CC(CC)CCCC)C(=O)CN(CCCCCCCCCCCC)C(=O)CN(CCCCCCCC)C(=O)CNC(CO)CO (stereo not drawn) [Compound 35] (H-[N(CH(CH2OH)2)Gly][N(octyl)Gly][Gly(N-dodecyl)][N(2-ethylhexyl)Gly][N(octyl)Gly][Gly(N-dodecyl)][N(2-ethylhexyl)Gly]-NH2) | 4.5 | 5.1 | top expressers
6 | Multimodal | 181.4 | −0.676 | 6.418 | 56.4 | CCCCCCCCCCN(CC(N)=O)C(=O)CN(CCCCCCCCCC)C(=O)CN(CCCCCCCCCC)C(=O)CN(CCCCCCCCCC)C(=O)CNC(CO)CO [Compound 37] | 7.8 | 23.9 | –
7 | Multimodal | 270.5 | −7.48 | 4.883 | 55.9 | CCCCCCCCCCCCN(CC(N)=O)C(=O)CN(CC(CC)CCCC)C(=O)CN(CCCCCCCCCCCC)C(=O)CN(CCCCCCCCCCCC)C(=O)CN(CC(CC)CCCC)C(=O)CN(CCCCCCCCCCCC)C(=O)CNC(CO)CO (stereo not drawn) [Compound 40] (H-[N(CH(CH2OH)2)Gly][Gly(N-dodecyl)][N(2-ethylhexyl)Gly][Gly(N-dodecyl)][Gly(N-dodecyl)][N(2-ethylhexyl)Gly][Gly(N-dodecyl)]-NH2) | 0.5 | -0.1 | –
8 | 0.194 | 98.1 | 2.39 | 6.936 | 76.4 | CCCCCCCC/C=C\CCCCCCCCN(CC(=O)N(CCCCCCCC)CC(=O)N(CCCCCCCC/C=C\CCCCCCCC)CC(=O)N(CCCCCCCC)CC(N)=O)C(=O)CNC(CO)CO [Compound 44] | 51.6 | 95.8 | –
